The source of these data is ChEMBL document CHEMBL4376809, “Discovery of a Potent and Selective Fragment-like Inhibitor of Methyllysine Reader Protein Spindlin 1 (SPIN1)” (J Med Chem, 2019).

Each structure is given as a SMILES string. The source made the active and inactive calls. No cut-off for these calls is given here. Non-standard residues stand in square brackets, D forms with d. Residues, ends and D or L forms follow the SMILES beside them. *: point of attachment. Benzoyl(4-tBu) = CC(C)(C)c1ccc(C(=O)*)cc1; Lys(Et2) = CCN(CC)CCCC[C@H](N)C(=O)O

Data set [1] concerns the target Spindlin-2B (Homo sapiens, UniProt Q9BPZ2). Put plainly: Inhibition of recombinant human N-terminal His6-tagged SPIN2B (45 to 258 residues) expressed in Escherichia coli BL21 (DE3) cells assessed as dissociation constant by isothermal titration calorimetry.
Data set [2] deals with Histone-lysine N-methyltransferase EHMT1/EHMT2 (Homo sapiens) (UniProt Q9H9B1+Q96KQ7). Briefly: Inhibition of human G9a catalytic domain/GLP catalytic domain in presence of SAM assessed as dissociation constant by isothermal calorimetry assay. It is filed as protein assay. On the technique in general: Isothermal titration calorimetry measures the heat released or taken up as one component is titrated into another.
Sequence of Histone-lysine N-methyltransferase EHMT1/EHMT2 (Homo sapiens) (Q96KQ7 whole entry, looked up, the tested form may be a part): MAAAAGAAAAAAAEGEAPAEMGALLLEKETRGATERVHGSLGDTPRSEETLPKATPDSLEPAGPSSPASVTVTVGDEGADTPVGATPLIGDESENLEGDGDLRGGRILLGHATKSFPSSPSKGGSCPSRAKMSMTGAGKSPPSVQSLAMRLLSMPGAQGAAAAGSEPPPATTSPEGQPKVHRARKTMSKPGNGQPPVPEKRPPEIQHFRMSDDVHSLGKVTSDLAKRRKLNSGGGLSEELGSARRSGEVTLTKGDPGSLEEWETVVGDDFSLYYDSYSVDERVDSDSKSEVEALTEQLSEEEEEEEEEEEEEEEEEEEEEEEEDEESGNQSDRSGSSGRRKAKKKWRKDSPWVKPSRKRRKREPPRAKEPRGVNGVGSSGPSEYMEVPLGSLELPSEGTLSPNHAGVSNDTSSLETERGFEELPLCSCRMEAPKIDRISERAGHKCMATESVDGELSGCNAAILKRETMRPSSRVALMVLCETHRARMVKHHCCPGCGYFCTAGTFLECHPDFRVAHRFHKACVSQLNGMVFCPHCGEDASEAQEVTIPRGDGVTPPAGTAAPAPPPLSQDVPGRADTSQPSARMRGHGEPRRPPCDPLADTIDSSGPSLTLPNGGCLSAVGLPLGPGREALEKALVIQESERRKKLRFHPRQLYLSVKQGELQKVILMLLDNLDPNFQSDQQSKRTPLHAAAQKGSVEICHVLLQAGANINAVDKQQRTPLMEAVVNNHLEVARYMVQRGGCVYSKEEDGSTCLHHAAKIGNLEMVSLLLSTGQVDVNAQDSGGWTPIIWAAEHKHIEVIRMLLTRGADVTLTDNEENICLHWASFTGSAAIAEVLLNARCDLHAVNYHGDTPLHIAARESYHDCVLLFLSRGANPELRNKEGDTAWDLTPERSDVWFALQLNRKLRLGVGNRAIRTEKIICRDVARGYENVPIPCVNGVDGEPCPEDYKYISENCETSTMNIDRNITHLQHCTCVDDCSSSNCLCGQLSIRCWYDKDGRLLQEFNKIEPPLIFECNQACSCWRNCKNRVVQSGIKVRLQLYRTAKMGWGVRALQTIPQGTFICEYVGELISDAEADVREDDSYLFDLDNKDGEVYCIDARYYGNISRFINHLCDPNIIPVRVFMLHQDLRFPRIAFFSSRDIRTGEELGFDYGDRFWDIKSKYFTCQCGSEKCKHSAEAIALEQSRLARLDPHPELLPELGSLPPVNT
Sequence of Histone-lysine N-methyltransferase EHMT1/EHMT2 (Homo sapiens) (Q9H9B1 whole entry, looked up, the tested form may be a part): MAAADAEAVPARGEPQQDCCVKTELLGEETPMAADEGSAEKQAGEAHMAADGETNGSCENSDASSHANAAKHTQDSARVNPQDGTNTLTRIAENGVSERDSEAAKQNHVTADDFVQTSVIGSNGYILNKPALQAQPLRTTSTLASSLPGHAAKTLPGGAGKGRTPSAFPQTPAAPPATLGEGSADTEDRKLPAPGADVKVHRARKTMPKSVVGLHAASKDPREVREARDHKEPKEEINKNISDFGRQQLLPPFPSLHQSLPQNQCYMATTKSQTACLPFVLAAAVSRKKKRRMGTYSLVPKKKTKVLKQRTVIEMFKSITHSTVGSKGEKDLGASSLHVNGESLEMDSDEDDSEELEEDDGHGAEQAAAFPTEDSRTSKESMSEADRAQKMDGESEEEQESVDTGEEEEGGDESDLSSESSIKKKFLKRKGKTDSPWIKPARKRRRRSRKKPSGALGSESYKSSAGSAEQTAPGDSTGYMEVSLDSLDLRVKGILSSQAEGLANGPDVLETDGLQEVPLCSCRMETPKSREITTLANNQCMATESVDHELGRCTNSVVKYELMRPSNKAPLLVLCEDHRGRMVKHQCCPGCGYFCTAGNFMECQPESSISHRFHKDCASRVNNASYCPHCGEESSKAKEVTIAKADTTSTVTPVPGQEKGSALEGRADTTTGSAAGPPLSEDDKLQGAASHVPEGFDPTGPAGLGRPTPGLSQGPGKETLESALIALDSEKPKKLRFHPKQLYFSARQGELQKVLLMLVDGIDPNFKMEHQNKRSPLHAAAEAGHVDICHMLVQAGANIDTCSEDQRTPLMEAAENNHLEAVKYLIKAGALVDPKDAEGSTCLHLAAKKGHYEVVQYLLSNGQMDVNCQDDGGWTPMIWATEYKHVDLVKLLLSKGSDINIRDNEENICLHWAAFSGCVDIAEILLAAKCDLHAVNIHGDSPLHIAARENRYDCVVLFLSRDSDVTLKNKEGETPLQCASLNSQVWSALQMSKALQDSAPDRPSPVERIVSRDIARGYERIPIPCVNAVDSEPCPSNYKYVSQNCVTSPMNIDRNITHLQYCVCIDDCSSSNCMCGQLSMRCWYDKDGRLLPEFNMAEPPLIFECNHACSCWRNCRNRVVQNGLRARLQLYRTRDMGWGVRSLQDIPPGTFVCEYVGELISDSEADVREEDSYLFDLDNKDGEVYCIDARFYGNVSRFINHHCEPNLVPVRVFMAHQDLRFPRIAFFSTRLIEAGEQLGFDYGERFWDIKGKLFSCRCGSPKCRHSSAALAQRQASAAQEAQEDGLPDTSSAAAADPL

In data set [3] the target is Spindlin-3 (Homo sapiens, UniProt Q5JUX0). Put plainly: Inhibition of recombinant human N-terminal His6-tagged SPIN3 (27 to 258 residues) expressed in Escherichia coli BL21 (DE3) cells assessed as dissociation constant by isothermal titration calorimetry.
Sequence of Spindlin-3 (Q5JUX0 whole entry, the tested form may be a part): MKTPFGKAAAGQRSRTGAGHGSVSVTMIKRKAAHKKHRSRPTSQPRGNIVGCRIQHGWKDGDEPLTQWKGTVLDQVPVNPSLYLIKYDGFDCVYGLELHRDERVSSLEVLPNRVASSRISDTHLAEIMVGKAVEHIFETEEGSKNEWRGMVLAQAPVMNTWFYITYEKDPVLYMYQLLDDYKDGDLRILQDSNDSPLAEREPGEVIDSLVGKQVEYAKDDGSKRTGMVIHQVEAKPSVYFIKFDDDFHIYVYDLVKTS
Data set [4] deals with T1, Spindlin-4 (Homo sapiens, UniProt Q56A73).
T1 sequence (Q56A73 whole entry): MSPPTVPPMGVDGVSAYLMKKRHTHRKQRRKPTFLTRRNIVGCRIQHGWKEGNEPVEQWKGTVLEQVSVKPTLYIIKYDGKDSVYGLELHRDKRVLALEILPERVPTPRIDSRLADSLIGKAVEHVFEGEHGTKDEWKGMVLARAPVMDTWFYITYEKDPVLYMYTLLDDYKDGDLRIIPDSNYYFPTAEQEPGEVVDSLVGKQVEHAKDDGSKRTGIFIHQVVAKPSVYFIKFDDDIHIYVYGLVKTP
Briefly: Inhibition of recombinant human N-terminal His6-tagged SPIN4 (36 to 249 residues) expressed in Escherichia coli BL21 (DE3) cells assessed as dissociation constant by isothermal titration calorimetry.

Data set [5] relates to C2C12. Briefly: Cytotoxicity against mouse C2C12 cells assessed as reduction in cell viability up to 30 uM incubated for 6 days by resazurin dye based fluorescence assay. As to conditions: c2c12, 144 h. (Alamar Blue is a resazurin reagent that responds to reducing activity.)
The test system of data set [6] is HEK-293T. Put plainly: Cytotoxicity against human 293T cells assessed as reduction in cell viability up to 30 uM incubated for 6 days by resazurin dye based fluorescence assay. As to conditions: 144 h.
Data set [7] has as its system HFF-1. Put plainly: Cytotoxicity against human HFF1 cells assessed as reduction in cell viability up to 30 uM incubated for 6 days by resazurin dye based fluorescence assay. As to conditions: hff-1, 144 h.
The species named for data set [8] is Homo sapiens. Briefly: Inhibition of human MLL1/RBBP5/WDR5 trimeric complex up to 50 uM using Biot-H3 (1-25) as substrate and in presence of [3H]-SAM incubated for 1 hr by scintillation proximity assay. Background: SPA uses beads or plates that emit light when radiolabelled molecules are held near them.
Data set [9] is filed under the species Homo sapiens. Put plainly: Inhibition of human MLL3/ASH2L/RBBP5/WDR5/DPY30 pentameric complex up to 50 uM using Biot-H3 (1-25) as substrate and in presence of [3H]-SAM incubated for 1 hr by scintillation proximity assay.
For data set [10], the species on record is Homo sapiens. Briefly: Binding affinity to JARID1 (unknown origin) assessed as induction of thermal shifts at 20 uM measured for 25 mins by SYPRO orange dye thermal shift assay.
The target in data set [11] is T2, Spindlin-1 (Homo sapiens, UniProt Q9Y657).
T2 sequence (Q9Y657 whole entry): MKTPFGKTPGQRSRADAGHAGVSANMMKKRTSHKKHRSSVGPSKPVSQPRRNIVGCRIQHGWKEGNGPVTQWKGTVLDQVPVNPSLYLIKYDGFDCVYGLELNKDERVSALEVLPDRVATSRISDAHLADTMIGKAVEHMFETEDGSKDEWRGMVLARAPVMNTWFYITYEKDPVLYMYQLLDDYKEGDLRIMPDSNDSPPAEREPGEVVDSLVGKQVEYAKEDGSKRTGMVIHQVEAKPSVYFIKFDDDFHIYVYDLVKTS
In data set [12] the target is T2, Spindlin-1. This is another data set of the same source.
Data set [13] deals with T2, Spindlin-1. This is another data set of the same source.
Data set [14] has as its target T2, Spindlin-1. Put plainly: biochemical.
The target in data set [15] is T2, Spindlin-1. Put plainly: biochemical. This is another data set of the same source.
Data set [16] concerns the target T3, Chromobox protein homolog 7 (Homo sapiens, UniProt O95931).
T3 sequence (O95931 whole entry): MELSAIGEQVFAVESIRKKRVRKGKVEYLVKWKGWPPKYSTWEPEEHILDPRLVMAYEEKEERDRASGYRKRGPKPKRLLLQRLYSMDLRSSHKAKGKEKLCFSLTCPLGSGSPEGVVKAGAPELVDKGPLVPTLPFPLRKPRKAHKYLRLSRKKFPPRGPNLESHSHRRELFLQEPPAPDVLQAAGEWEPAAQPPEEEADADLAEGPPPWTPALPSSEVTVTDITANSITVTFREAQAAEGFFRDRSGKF
Put plainly: Inhibition of CBX7 (unknown origin) assessed as dissociation constant by isothermal titration calorimetry.

Data set [17] has as its target T4, E3 SUMO-protein ligase CBX4 (Homo sapiens, UniProt O00257).
T4 sequence (O00257 whole entry): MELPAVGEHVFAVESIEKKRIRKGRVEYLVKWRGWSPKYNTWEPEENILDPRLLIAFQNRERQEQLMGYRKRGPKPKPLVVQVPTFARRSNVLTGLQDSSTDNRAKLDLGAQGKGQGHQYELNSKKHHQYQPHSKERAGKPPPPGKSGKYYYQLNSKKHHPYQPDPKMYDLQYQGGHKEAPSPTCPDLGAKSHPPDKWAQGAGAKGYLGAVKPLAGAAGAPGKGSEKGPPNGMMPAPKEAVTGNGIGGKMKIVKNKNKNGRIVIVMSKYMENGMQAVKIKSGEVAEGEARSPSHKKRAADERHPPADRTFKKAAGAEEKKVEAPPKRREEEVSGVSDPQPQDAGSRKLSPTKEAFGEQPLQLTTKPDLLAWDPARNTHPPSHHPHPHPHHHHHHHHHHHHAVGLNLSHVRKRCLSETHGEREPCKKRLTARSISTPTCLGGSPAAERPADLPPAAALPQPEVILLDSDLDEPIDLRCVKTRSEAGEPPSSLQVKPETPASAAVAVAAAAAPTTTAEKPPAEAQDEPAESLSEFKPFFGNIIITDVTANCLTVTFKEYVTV
Briefly: Inhibition of CBX4 (unknown origin) assessed as dissociation constant by isothermal titration calorimetry.

Sequence of Spindlin-2B (Q9BPZ2 whole entry, the tested form may be a part): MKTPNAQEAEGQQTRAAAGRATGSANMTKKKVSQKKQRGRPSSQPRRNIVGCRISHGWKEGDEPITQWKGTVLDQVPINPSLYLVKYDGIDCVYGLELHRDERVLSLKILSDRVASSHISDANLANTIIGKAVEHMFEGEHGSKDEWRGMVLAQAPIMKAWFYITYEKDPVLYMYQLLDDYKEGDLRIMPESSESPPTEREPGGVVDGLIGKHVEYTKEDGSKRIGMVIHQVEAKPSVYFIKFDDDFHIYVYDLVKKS

Broadly, the Kd is the free concentration of one partner at which half of the binding sites on the other are occupied at equilibrium, for simple one-to-one binding. With `COc1c(CN)cc(CN)cc1OCCCN1Cc2ccccc2C1`, the Kd in data set [1], in data set [3] and in data set [4] was 170 to 1700 nM each time. Also, the inhibition result in data set [2], in data set [8] and in [9] was “inactive” throughout. Moreover, the Activity entry in data set [5], in data set [6] and in data set [7] was “Non-Toxic” throughout. In addition, in [10], the result was inactive.

As usually defined, the IC50 is the concentration needed to halve the response being measured. A lower IC50 goes with inhibition by little substance. `COc1c(CN)cc(C(N)=O)cc1OCCCN1Cc2ccccc2C1`: the Kd entry in data set [11] is given as “Not Active”. In addition, the half-maximal inhibitory concentration (IC50) entry in data set [12] and in [13] was “Not Active” throughout.

For the compound `COc1c(CN)cc(CN)cc1OCCCN1CCCC1`, the inhibition result in [2] is “inactive”. The equilibrium dissociation constant (Kd) in [11] (read-out: Kd) is 390 nM. For the same compound, the IC50 was 741 nM in data set [14] and 338 nM in [15].

As for `CCN(CC)CCCC[C@H](NC(=O)[C@H](CC(C)C)NC(=O)[C@H](C)NC(=O)[C@H](C)NC(=O)c1ccc(C(C)(C)C)cc1)C(=O)N[C@@H](CO)C(=O)OC` ({Benzoyl(4-tBu)}-AAL[Lys(Et2)]S-OMe), the dissociation constant (Kd) turned out to be 97 nM in data set [16] and 94 nM in data set [17].
